Reference: publication PMC9585897 (Peptides, 2022)
“Also recorded” adds a separate entry of the source. Non-standard residues stand in square brackets, D forms with d. Residues, ends and D or L forms follow the SMILES beside them. Ahx = NCCCCCC(=O)O

Columns and labels:
[1] = molecular target: SARS-CoV-2 Spike-ACE2 interaction (Severe acute respiratory syndrome coronavirus 2, UniProt P0DTC2); assay: ELISA, SARS-CoV-2 Spike-ACE2 Interaction Inhibitor Screening Assay Kit; format: biochemical
[2] = system: rCoV2-RBD (His-Spike S1 Protein, 13–685 aa); format: binding, SARS-CoV-2

Compound | IC50 [1] | Competition with ACE2 for binding to CoV2-RBD (in words) ([1]; approximately 13.48 μM of ACE2, ELISA) | Inhibition of the Spike-ACE2 interaction (in words) ([1]; competitive ELISA, BP19 1 to 128 μM in triplicates) | Binding of CoV2-RBD, sliding window array (in words) [2]
CC[C@H](C)[C@H](NC(=O)[C@H](Cc1ccccc1)NC(=O)[C@H](CCCCN)NC(=O)[C@H](CC(=O)O)NC(=O)[C@H](CC(C)C)NC(=O)[C@H](Cc1ccccc1)NC(=O)[C@@H](NC(=O)[C@H](CCCCN)NC(=O)[C@H](C)NC(=O)[C@H](CCC(N)=O)NC(=O)[C@H](CCC(=O)O)NC(=O)[C@H](CCC(=O)O)NC(=O)[C@@H](NC(=O)[C@@H](NC(=O)[C@H](CO)NC(=O)[C@H](CCC(N)=O)NC(=O)[C@H](C)NC(=O)[C@H](C)NC(=O)[C@@H](NC(=O)[C@@H](NC(=O)[C@H](C)NC(=O)[C@@H](NC(=O)[C@H](CC(C)C)NC(=O)[C@@H](N)CO)C(C)C)C(C)C)[C@@H](C)O)[C@@H](C)O)[C@@H](C)CC)[C@@H](C)O)C(=O)NCCCCCC(=O)N[C@@H](Cc1c[nH]c2ccccc12)C(N)=O [BP19] (H-SLVAVTAAQSTIEEQAKTFLDKFI[Ahx]W-NH2; N-terminus assumed) | 2.08 ± 0.38 µM | able to outcompete the natural ACE2 at lower than equimolar concentrations; also recorded: outcompeted 13.48 μM of ACE2 for binding to the CoV2-RBD | dose-responsive; also recorded: inhibitory of the Spike-ACE2 interaction in vitro | 
SLVAVTAAQSTIEEQAKTFLDKFN [9 ^N] |  |  |  | bound the CoV2-RBD the strongest; also recorded: bound the CoV2-RBD with the greatest intensity
